Where a name gives a salt, the structure may show the parent alone.
Tests used:
[1] = Solubility in the organic solvent Solvesso 200ND; type: physicochemical; details: room temperature
Experimental: (§1) As a preliminary step, solubility tests were performed to determine the ability of Aminopyralid potassium salt used as herbicide B to dissolve in the organic solvent Solvesso 200ND and the oil phase of the emulsion disclosed in US 2011/0092367 A1, page 11, paragraphs [0141] and [0142].
The solubility was measured in a test tube at room temperature. 0.10 g of Aminopyralid potassium salt was placed in the test tube. First, 1 g of the organic solvent (Solvesso 200 ND) was added. The amount of the organic solvent (Solvesso 200 ND) was then increased in several steps to 10 g. […] The solubility of Aminopyralid Potassium salt in Solvesso 200ND was visually determined to be less than 1%.

[2] = Solubility in the oil phase of the emulsion of US 2011/0092367 A1; type: physicochemical; details: Solvesso 200 ND, Wettol EM 1, Wettol EM 31 per Table 9
Experimental: as §1
The organic solvent (Solvesso 200 ND), calcium dodecylbenzene sulfonate (Wettol EM 1) and castor oil ethoxylate (Wettol EM 31) were mixed in the amounts given in Table 9. After mixing, it was not soluble in said mixture. After further adding dimethenamid-P in the amount given in Table 9, solubility of the Aminopyralid potassium salt could not be increased. In summary, Aminopyralid potassium salt (herbicide B) was not soluble in the oil phase of the emulsion as disclosed in US 2011/0092367 A1 (see page 11, paragraphs [0141] and [0142]).

Compound: Nc1cc(Cl)nc(C(=O)O)c1Cl [Aminopyralid potassium salt, 4-amino-3,6-dichloro-2-pyridinecarboxylic acid]
- Solubility in Solvesso 200 ND (visual observation) ([1]; 0.10 g in 1 g to 10 g solvent, magnetic stirrer): poor solubility
- Solubility in Solvesso 200ND ([1]; visually determined): less than 1%
- Solubility in the oil phase of the emulsion of US 2011/0092367 A1 [2]: not soluble

Reference: patent publication US20260354378A1, “OIL-IN-WATER EMULSION FORMULATION, A PROCESS FOR ITS PREPARATION AND ITS USE AS HERBICIDE” (priority 2022, published 2026)
